# Patent US9155761B2, “Method for the treatment of cancer” (UNIVERSITY COLLEGE CORK, NATIONAL UNIVERSITY OF IRELAND, …, priority 2009, dated 2015)
# Entries after “also recorded” stand apart in the source; their conditions may differ.
# Columns and labels:
# [1] = tested on: KYSE450; assay: Mitochondrial depolarization, JC-1 probe; type: cell-based, human; conditions: 48 hour treatment
# Protocol: (§1) Mitochondrial membrane potential was determined using the JC-1 probe (Molecular Probes). In non-apoptotic cells, JC1 accumulates as aggregates in the mitochondria, which stain red (FL2; 590 nm). At the onset of apoptosis, a loss of mitochondrial membrane potential (ΔΨm) releases the aggregated JC1, returning it to its monomeric form, which stains the cytosol green (FL1; 530 nm). Therefore, fluorescence of the JC-1 probe in the FL-2 channel decreases as mitochondrial membrane integrity is lost, while the fluorescence in FL-1 channel increases. Cells were incubated in JC1 (7.5 μg/ml) at 37° C. for 15 mins, and washed prior to analysis by flow cytometry (FACScan, Becton Dickinson). Percentages denote the proportion of cells with depolarised mitochondria following 48 hour incubation with 5-Fluorouracil and represent at least three independent experiments.
# [2] = tested on: OE33; assay: Mitochondrial depolarization, JC-1 probe; type: cell-based, human; conditions: 48 hour treatment
# Protocol: as §1
# [3] = tested on: OE21; assay: Mitochondrial depolarization, JC-1 probe; type: cell-based, human; conditions: 48 hour treatment
# Protocol: as §1
# [4] = tested on: OE19; assay: Mitochondrial depolarization, JC-1 probe; type: cell-based, human; conditions: 48 hour treatment
# Protocol: as §1
# [5] = tested on: LC3 in OE33 cells; assay: LC3 / GFP-LC3 processing and distribution (Western blot, fluorescence microscopy); type: cell-based, human
# Protocol: (§2) Total cellular protein extracts were prepared by scraping the cells into modified RIPA buffer (50 mM Tris HCl (pH 7.4), 150 mM NaCl, 0.25% Sodium deoxycholate, 1% Igepal, protease inhibitors 1 mM EDTA, 1× Pefabloc, 1× protease inhibitor cocktail, 1 mM Na3VO4, 1 mM NaF). All protein samples were separated by SDS-PAGE (10/12%) and electrophoretically transferred onto nitrocellulose membrane. All primary antibodies were incubated overnight at 4° C.: anti-phospho mTOR (Ser 2448) and anti-p70^S6K (Thr 389) (Cell Signaling Technologies, UK), anti-Beclin-1 (BD Biosciences, UK) and anti-LC3 (Medical & Biological Laboratories, Japan). The membranes were incubated with the relevant horseradish peroxidase conjugated secondary antibodies (DakoCytomation, Dublin) and detected by chemiluminescence (ECL Amersham, UK).
# (§3) To visualize and quantify the formation of autophagic vesicles, the green fluorescent protein (GFP)-LC3 (pEGFP-LC3) expression vector, kindly supplied by Dr. T. Yoshimori (National Institute of Genetics, Japan) was used. Cells were transiently transfected with the Amaxa electroporation system according to the supplier's protocol. Twenty-four hours post transfection, cells were treated with 5-FU and/or Cisplatin, fixed in 4% paraformaldehyde in PBS and transferred onto slides using a non-fluorescent fixative for analysis by fluorescence microscopy. Alternatively, Western Blot analysis was used to assess the expression and processing of LC3. […] The membrane sequestered, lipid-conjugated form of LC3-II remains with the autophagosome membrane after the vesicle has formed, and levels of both isoform are detected by Western Blot. Transfection efficiency was consistent for a given cell line, OE33 and KYSE450 cell lines (˜60-70%) compared to OE19 and OE21 cell lines (˜30%).
# [6] = tested on: LC3 in OE19 cells; assay: as above; type: cell-based, human
# Protocol: as §2, §3
# [7] = tested on: LC3 in KYSE450 cells; assay: as above; type: cell-based, human
# Protocol: as §2, §3
# [8] = tested on: LC3 in OE21 cells; assay: as above; type: cell-based, human
# Protocol: as §2, §3
# [9] = tested on: active caspase-3 in OE33 cells; assay: Active caspase-3 by flow cytometry; type: cell-based, human; conditions: 48 hours after treatment
# Protocol: To examine control and 5-Fluorouracil treated cells for evidence of caspase activity cells were processed by trypsinization, 48 hours after treatment. […] This was detected with an anti rabbit FITC conjugated secondary antibody, and samples were analyzed by FACScan at 530 nm (FL-1). Percentages indicate the proportion of cells with active caspase-3, detected as an increase in the number of FITC (FL-1) labelled cells.
# [10] = tested on: OE21
# Protocol: (§4) Morphological features of cells treated with 5-fluorouracil (5-FU)/cisplatin, without and with 3-MA, LY294002, Bafilomycin, Lithium chloride, rapamycin or HA14-I were examined by light microscopy. Morphologies of treated cells were examined 24 and 48 hours post treatment, treatment times are referred to in figure legends. Aliquots of vehicle control and drug treated cells were cytospun onto glass slides and stained with Rapi-Diff (Braidwood laboratories, UK). The extent of apoptotic and non-apoptotic cell death was determined by counting the cells in at least three fields of view per slide, with an average of ˜100 cells per field. Apoptotic cell death is characterized by the presence of two or more of the following morphological features: cell shrinkage, chromatin condensation, DNA degradation and fragmentation into ‘apoptotic bodies’, within an intact plasma membrane. Autophagic cell death was identified by clear elevation of cytoplasmic vesicles, loss of cytoplasmic material, pyknosis of the nuclear material and an intact nuclear membrane. Cytospin images are representative of at least three independent experiments.
# [11] = tested on: CT26 (Colorectal carcinoma cells); assay: CT26 colorectal carcinoma model, intratumoural Rapamycin / 5-FU; type: in vivo, mice; conditions: intratumoural thrice weekly; Rapamycin 0.6-2 mg/kg; 5-FU 20 mg/kg
# Protocol: For routine tumour induction, 1×10^6 CT26 (Colorectal carcinoma cells) suspended in 200 μl of serum free DMEM are injected subcutaneously into the right flank of adult female Balb/c mice, after anaesthesia. Mice are randomly divided into experimental groups. Mice are treated at a tumour volume of approximately 60 mm^3 in volume (5-7 mm major diameter). […] Following drug treatment, tumours are monitored by alternate day measurements in two dimensions, using Verniers Calipers. Tumor volumes are calculated according to the formula V=ab^2/6, where ‘a’ is the longest diameter of the tumor and ‘b’ is the longest diameter perpendicular to diameter ‘a’. Animals are culled when tumour volumes exceed ˜500 mm^3 (no greater than 15 mm in diameter). […] Treatment of these animals is maintained until day 58, following which all treatments cease.
# [12] = tested on: CT26 (Colorectal carcinoma cells); assay: CT26 colorectal carcinoma model, intratumoural 5-FU / Lithium Chloride; type: in vivo, mice; conditions: intratumoural thrice weekly; Lithium Chloride 200 mg/kg; 5-FU 20 mg/kg
# Protocol: For routine tumour induction, 1×10^6 CT26 (Colorectal carcinoma cells) suspended in 200 μl of serum free DMEM were injected subcutaneously into the right flank of adult female Balb/c mice, after anaesthesia. Mice were randomly divided into experimental groups. Mice were treated at a tumour volume of approximately 60 mm^3 in volume (5-7 mm major diameter). All treatments were delivered in 50 μl volumes, administered directly into the tumour, thrice weekly with PBS (Control), Lithium Chloride (200 mg/kg), 5-FU (20 mg/kg) and a combination of both Lithium and 5-FU (200 mg/kg, 20 mg/kg). Following drug treatment, tumours were monitored by alternate day measurements in two dimensions, using Verniers Calipers. Tumor volumes were calculated according to the formula V=ab^2/6, where ‘a’ is the longest diameter of the tumor and ‘b’ is the longest diameter perpendicular to diameter ‘a’. Animals were culled when tumour volumes exceeded ˜500 mm^3 (no greater than 15 mm in diameter). […] Treatment of these animals was maintained until day 58, following which all treatments ceased.
# [13] = tested on: KYSE450; assay: Evaluation of cell death morphology by light microscopy; type: cell-based, human
# Protocol: as §4
# [14] = tested on: OE33; assay: as above; type: cell-based, human; conditions: 5-FU (50 μM) or cisplatin (40 μM), 48 hours
# Protocol: as §4
# [15] = tested on: OE19; assay: as above; type: cell-based, human; conditions: 5-FU (50 μM) or cisplatin (40 μM), 48 hours
# Protocol: as §4
# [16] = tested on: KYSE450; assay: Monodansylcadaverine (MDC)-labelled vacuoles; type: cell-based, human; conditions: 25 μM
# Protocol: (§5) MDC is an autofluorescent weak base that accumulates in acidic lysosomal vacuoles, showing high selectivity for autophagosomes, due to the high level of unhydrolyzed membrane lipids from engulfed organelles, which enhance MDC fluorescence. Cells were incubated with 0.1 mM MDC in PBS at 37° C. for 10 minutes (Biederbick et al., 1995), washed and immediately analyzed by fluorescent microscopy.
# [17] = tested on: OE33; assay: Monodansylcadaverine (MDC)-labelled vacuoles; type: cell-based, human; conditions: 25 μM
# Protocol: as §5
# [18] = tested on: OE21; assay: Monodansylcadaverine (MDC)-labelled vacuoles; type: cell-based, human; conditions: 25 μM
# Protocol: as §5
# [19] = tested on: OE19; assay: Monodansylcadaverine (MDC)-labelled vacuoles; type: cell-based, human; conditions: 25 μM
# Protocol: as §5
# [20] = 5-FU or cisplatin (images not shown)
# [21] = 5-FU (50 μM) or cisplatin (40 μM), 48 hours
compound,measurement,setting,value
"O=c1[nH]cc(F)c(=O)[nH]1 [5-FU, 5-fluorouracil]",mitochondrial depolarization (JC-1),[1],do not show caspase-3 activity or mitochondrial membrane depolarization; also recorded: do not exhibit membrane depolarization
same,mitochondrial depolarization (JC-1),[2],mitochondrial depolarization
same,mitochondrial depolarization (JC-1),[3],significant mitochondrial depolarization
same,mitochondrial depolarization (JC-1),[4],do not show caspase-3 activity or mitochondrial membrane depolarization
same,GFP-LC3 distribution (fluorescence microscopy),[5]; [20],Diffuse cytoplasmic localization of GFP-LC3
same,induction of autophagosome-associated LC3II band (Western blot),[5]; 24 and 48 hours,no induction of a lower autophagosome-associated LC3II-band
same,GFP-LC3 distribution (fluorescence microscopy),[6]; 5-FU (25 & 50 μM) or cisplatin (10 & 25 μM),Redistribution of GFP-LC3 from a diffuse cytosolic to a punctate autophagosome-associated pattern; also recorded: bright punctate patterns of GFP-LC3 fluorescence
same,"LC3II levels (Western blot, GFP-LC3)","[6]; 5-FU, 24 hours",significant increase in LC3II levels
same,GFP-LC3 distribution (fluorescence microscopy),[7]; 5-FU or cisplatin (data not shown),Redistribution of GFP-LC3 from a diffuse cytosolic to a punctate autophagosome-associated pattern
same,"LC3II levels (Western blot, GFP-LC3)","[7]; 5-FU, 24 hours",significant increase in LC3II levels
same,GFP-LC3 distribution (fluorescence microscopy),[8]; [20],Diffuse cytoplasmic localization of GFP-LC3
same,induction of autophagosome-associated LC3II band (Western blot),[8]; 24 and 48 hours,no induction of a lower autophagosome-associated LC3II-band
same,active caspase-3,[9],displayed active caspase-3
same,cell death morphology,[10]; [21],predominantly apoptotic cell death morphology
same,autophagic cells as a minor population,[10]; 5-FU treated OE21 cells (FIG. 1c),7%
same,survival: day beyond which no animal of the group is alive / final animal euthanized,[11],33 days
same,survival: day beyond which no animal of the group was alive / final animal euthanized,[12],33 days
same,cell death morphology,[13]; [21],predominantly non-apoptotic morphology
same,morphology,"[13]; HA14-1 (5 μM) and/or 5-FU (50 μM), 24 hours",causes autophagic phenotype
same,cell death morphology,[14],predominantly apoptotic cell death morphology
same,cell death morphology,[15],predominantly non-apoptotic morphology
same,MDC staining pattern,[16],accumulation of MDC (bright blue punctate staining) throughout the cytoplasm
same,MDC staining pattern,[17],MDC staining patterns are diffuse
same,MDC staining pattern,[18],MDC staining patterns are diffuse
same,MDC staining pattern,[19],accumulation of MDC (bright blue punctate staining) throughout the cytoplasm
